Laboratory results published in PubChem BioAssay AID1963432 (Molecular Pharmacology Branch, DTP, NCI, 2024).

System: SYO-1 complex spheroid growth, percent test/control
Assay: Anticancer human tumor SYO-1 cell line growth inhibition [Asc];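 also: compound exposure lasted 7 days after spheroids grew 3 days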;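 as to viability, T/C: 100% = DMSO vehicle control viability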
Conditions: for IC50: curve of first compound; for viability, T/C: stronger effect = lower value; active = viability on the fitted dose curve at most 10% of control; inactive = the rest
Summary of the method: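 Tumor cells were grown as multicellular spheroids with stromal HUVEC and mesenchymal stem cells and treated singly or in combination. Concentrations fell in half-log steps from the clinical Cmax, or from 10 microM where none was known.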

[1] = second compound 0.0316 µM, first compound 0.0316 µM
[2] = second compound 0.0316 µM, first compound 0.1 µM
[3] = second compound 0.0316 µM, first compound 0.316 µM
[4] = second compound 0.0316 µM, first compound 1 µM
[5] = second compound 0.1 µM, first compound 0.0316 µM
[6] = second compound 0.1 µM, first compound 0.1 µM
[7] = second compound 0.1 µM, first compound 0.316 µM
[8] = second compound 0.1 µM, first compound 1 µM
[9] = second compound 0.316 µM, first compound 0.0316 µM
[10] = second compound 0.316 µM, first compound 0.1 µM
[11] = second compound 0.316 µM, first compound 0.316 µM
[12] = second compound 0.316 µM, first compound 1 µM
[13] = second compound 1 µM, first compound 0.0316 µM
[14] = second compound 1 µM, first compound 0.1 µM
[15] = second compound 1 µM, first compound 0.316 µM
[16] = second compound 1 µM, first compound 1 µM
[17] = second compound 3.16 µM, first compound 0.0316 µM
[18] = second compound 3.16 µM, first compound 0.1 µM
[19] = second compound 3.16 µM, first compound 0.316 µM
[20] = second compound 3.16 µM, first compound 1 µM
[21] = second compound 10 µM, first compound 0.0316 µM
[22] = second compound 10 µM, first compound 0.1 µM
[23] = second compound 10 µM, first compound 0.316 µM
[24] = second compound 10 µM, first compound 1 µM
[25] = second compound 0.0316 µM, first compound 0.00316 µM
[26] = second compound 0.0316 µM, first compound 0.01 µM
[27] = second compound 0.1 µM, first compound 0.00316 µM
[28] = second compound 0.1 µM, first compound 0.01 µM
[29] = second compound 0.316 µM, first compound 0.00316 µM
[30] = second compound 0.316 µM, first compound 0.01 µM
[31] = second compound 1 µM, first compound 0.00316 µM
[32] = second compound 1 µM, first compound 0.01 µM
[33] = second compound 3.16 µM, first compound 0.00316 µM
[34] = second compound 3.16 µM, first compound 0.01 µM
[35] = second compound 10 µM, first compound 0.00316 µM
[36] = second compound 10 µM, first compound 0.01 µM

C=CC(=O)N1CCN(c2nc(=O)n(-c3c(C)ccnc3C(C)C)c3nc(-c4c(O)cccc4F)c(F)cc23)C(C)C1 (stereo unspecified) + Cc1c(S(C)(=O)=O)c(-c2cc(F)cc(N3CCN(c4ccc(NS(=O)(=O)c5ccc(NC(CCN6CCC(C(=O)OCCCP(=O)(O)O)CC6)CSc6ccccc6)c(S(=O)(=O)C(F)(F)F)c5)cc4)CC3)c2)c(-c2ccc(Cl)cc2)n1C(C)C
inactive: viability, T/C [1] 105% | viability, T/C [2] 100% | viability, T/C [3] 100% | viability, T/C [4] 106% | viability, T/C (second compound 0.0316 µM, first compound 3.16 µM) 103% | viability, T/C (second compound 0.0316 µM, first compound 10 µM) 90.7% | viability, T/C [5] 114% | viability, T/C [6] 103% | viability, T/C [7] 93.4% | viability, T/C [8] 99.9% | viability, T/C (second compound 0.1 µM, first compound 3.16 µM) 99.7% | viability, T/C (second compound 0.1 µM, first compound 10 µM) 87% | viability, T/C [9] 98.3% | viability, T/C [10] 96.9% | viability, T/C [11] 101% | viability, T/C [12] 102% | viability, T/C (second compound 0.316 µM, first compound 3.16 µM) 88.3% | viability, T/C (second compound 0.316 µM, first compound 10 µM) 83.4% | viability, T/C [13] 94.4% | viability, T/C [14] 94% | viability, T/C [15] 99.2% | viability, T/C [16] 100% | viability, T/C (second compound 1 µM, first compound 3.16 µM) 90.7% | viability, T/C (second compound 1 µM, first compound 10 µM) 83.6% | viability, T/C [17] 91.5% | viability, T/C [18] 86.5% | viability, T/C [19] 93.2% | viability, T/C [20] 96.5% | viability, T/C (second compound 3.16 µM, first compound 3.16 µM) 87.9% | viability, T/C (second compound 3.16 µM, first compound 10 µM) 81% | viability, T/C [21] 90% | viability, T/C [22] 81.4% | viability, T/C [23] 83.9% | viability, T/C [24] 79.5% | viability, T/C (second compound 10 µM, first compound 3.16 µM) 89.9% | viability, T/C (second compound 10 µM, first compound 10 µM) 76.1%
> 10 µM: IC50 (second compound 0.0316 µM) | IC50 (second compound 0.1 µM) | IC50 (second compound 0.316 µM) | IC50 (second compound 1 µM) | IC50 (second compound 3.16 µM) | IC50 (second compound 10 µM)

COc1c(OCCCN2CCOCC2)ccc2c3n(c(=NC(=O)c4cnc(N)nc4)nc12)CCN3 + Cc1c(S(C)(=O)=O)c(-c2cc(F)cc(N3CCN(c4ccc(NS(=O)(=O)c5ccc(NC(CCN6CCC(C(=O)OCCCP(=O)(O)O)CC6)CSc6ccccc6)c(S(=O)(=O)C(F)(F)F)c5)cc4)CC3)c2)c(-c2ccc(Cl)cc2)n1C(C)C
0.652 µM: IC50 (second compound 0.0316 µM)
0.509 µM: IC50 (second compound 0.316 µM)
0.452 µM: IC50 (second compound 1 µM)
active: viability, T/C [24] 6.85%
0.194 µM: IC50 (second compound 10 µM)
inactive: viability, T/C [25] 104% | viability, T/C [26] 93.8% | viability, T/C [1] 93.5% | viability, T/C [2] 83.1% | viability, T/C [3] 74.6% | viability, T/C [4] 36.4% | viability, T/C [27] 99.2% | viability, T/C [28] 97% | viability, T/C [5] 91.8% | viability, T/C [6] 80.3% | viability, T/C [7] 69.5% | viability, T/C [8] 35.6% | viability, T/C [29] 90.7% | viability, T/C [30] 98.3% | viability, T/C [9] 94.1% | viability, T/C [10] 82.4% | viability, T/C [11] 65.8% | viability, T/C [12] 28.5% | viability, T/C [31] 91.5% | viability, T/C [32] 100% | viability, T/C [13] 94.7% | viability, T/C [14] 87.5% | viability, T/C [15] 63.4% | viability, T/C [16] 20.5% | viability, T/C [33] 92.5% | viability, T/C [34] 91.1% | viability, T/C [17] 92.3% | viability, T/C [18] 78.1% | viability, T/C [19] 49% | viability, T/C [20] 11.6% | viability, T/C [35] 83.2% | viability, T/C [36] 88.7% | viability, T/C [21] 72.3% | viability, T/C [22] 62% | viability, T/C [23] 41.7%
0.596 µM: IC50 (second compound 0.1 µM)
0.3 µM: IC50 (second compound 3.16 µM)

NC1CCC(NC2CC2c2ccccc2)CC1 (stereo unspecified) + Cc1c(S(C)(=O)=O)c(-c2cc(F)cc(N3CCN(c4ccc(NS(=O)(=O)c5ccc(NC(CCN6CCC(C(=O)OCCCP(=O)(O)O)CC6)CSc6ccccc6)c(S(=O)(=O)C(F)(F)F)c5)cc4)CC3)c2)c(-c2ccc(Cl)cc2)n1C(C)C
inactive: viability, T/C (second compound 0.0316 µM, first compound 0.000316 µM) 100% | viability, T/C (second compound 0.0316 µM, first compound 0.001 µM) 92.1% | viability, T/C [25] 90.5% | viability, T/C [26] 84.8% | viability, T/C [1] 86.9% | viability, T/C [2] 89% | viability, T/C (second compound 0.1 µM, first compound 0.000316 µM) 96.5% | viability, T/C (second compound 0.1 µM, first compound 0.001 µM) 92.7% | viability, T/C [27] 86.3% | viability, T/C [28] 87.1% | viability, T/C [5] 91.8% | viability, T/C [6] 86.5% | viability, T/C (second compound 0.316 µM, first compound 0.000316 µM) 105% | viability, T/C (second compound 0.316 µM, first compound 0.001 µM) 91.8% | viability, T/C [29] 87.9% | viability, T/C [30] 91.7% | viability, T/C [9] 89.1% | viability, T/C [10] 86.9% | viability, T/C (second compound 1 µM, first compound 0.000316 µM) 92.2% | viability, T/C (second compound 1 µM, first compound 0.001 µM) 88.5% | viability, T/C [31] 96.9% | viability, T/C [32] 92.3% | viability, T/C [13] 90.6% | viability, T/C [14] 85.8% | viability, T/C (second compound 3.16 µM, first compound 0.000316 µM) 91.3% | viability, T/C (second compound 3.16 µM, first compound 0.001 µM) 85.3% | viability, T/C [33] 88.7% | viability, T/C [34] 85.8% | viability, T/C [17] 79.8% | viability, T/C [18] 87.2% | viability, T/C (second compound 10 µM, first compound 0.000316 µM) 85.7% | viability, T/C (second compound 10 µM, first compound 0.001 µM) 85.4% | viability, T/C [35] 80.5% | viability, T/C [36] 82.4% | viability, T/C [21] 83.3% | viability, T/C [22] 79.7%
> 0.1 µM: IC50 (second compound 0.0316 µM) | IC50 (second compound 0.1 µM) | IC50 (second compound 0.316 µM) | IC50 (second compound 1 µM) | IC50 (second compound 3.16 µM) | IC50 (second compound 10 µM)
